Assay results published in US9445998B2, “Pharmaceutical dosage forms comprising a low-solubility drug and a polymer” (Bend Research, Inc., priority 2004, dated 2016).
Read-outs that look alike come from different tables or passages of the source.

Assays:
[1] = Microcentrifuge dissolution test in MFD solution; assay type: physicochemical; set-up: AUC: concentration or dose not given beside the values; conditions: for Dissolved Ziprasidone Concentration / AUC: MFD solution pH 6.5, 37° C.; for Dissolved Ziprasidone Concentration: 200 μgA/mL if all dissolved
Method: A microcentrifuge dissolution test was performed to verify that ziprasidone hydrochloride monohydrate is a solubility-improved form of ziprasidone. For this test, a sufficient amount of ziprasidone hydrochloride monohydrate was added to a microcentrifuge test tube so that the concentration of ziprasidone would have been 200 μgA/mL, if all of the ziprasidone had dissolved. The tests were run in duplicate. The tubes were placed in a 37° C. temperature-controlled chamber, and 1.8 mL MFD solution at pH 6.5 and 290 mOsm/kg was added to each respective tube. The samples were quickly mixed using a vortex mixer for about 60 seconds. The samples were centrifuged at 13,000 G at 37° C. for 1 minute prior to collecting a sample. The resulting supernatant solution was then sampled and diluted 1:5 (by volume) with methanol. Samples were analyzed by high-performance liquid chromatography (HPLC) at a UV absorbance of 315 nm using a Zorbax RxC8 Reliance column and a mobile phase consisting of 55% (50 mM potassium dihydrogen phosphate, pH 6.5)/45% acetonitrile. Drug concentration was calculated by comparing UV absorbance of samples to the absorbance of drug standards. The contents of each tube were mixed on the vortex mixer and allowed to stand undisturbed at 37° C. until the next sample was taken. Samples were collected at 4, 10, 20, 40, 90, and 1200 minutes following administration to the MFD solution.
A similar test was performed with the crystalline ziprasidone free base as a control, and a sufficient amount of material was added so that the concentration of compound would have been 200 μgA/mL, if all of the ziprasidone had dissolved.
The concentrations of ziprasidone obtained in these tests were used to determine the maximum dissolved concentration of ziprasidone (“MDC90”) and the area under the concentration-versus-time curve (“AUC90”) during the initial ninety minutes.

Solubility in water = assay type: physicochemical; conditions: expressed as the free base, listed as free base form
Excerpt: (§1) An example of a drug having a crystalline highly soluble salt form is ziprasidone. Ziprasidone hydrochloride monohydrate has a solubility of about 10 μgA/mL (expressed as the free base) in water, whereas the free base form has a solubility of less than about 0.2 μgA/mL under the same conditions. Thus, crystalline ziprasidone hydrochloride is a solubility-improved form relative to the crystalline free base form of ziprasidone.

[2] = assay type: physicochemical; conditions: not told, 100 μgA/mL, pH 6.5
Method: An Accurel® PP 1E microporous polypropylene membrane was obtained from Membrana GmbH (Wuppertal, Germany). The membrane was washed in isopropyl alcohol and rinsed in methanol in a sonicating bath for 1 minute at ambient temperature, and then allowed to air dry at ambient temperature. The feed side of the membrane was then plasma-treated to render it hydrophilic by placing a sample of the membrane in a plasma chamber. The atmosphere of the plasma chamber was saturated with water vapor at a pressure of 550 mtorr. A plasma was then generated using radio frequency (RF) power inductively coupled into the chamber via annular electrodes at a power setting of 50 watts for 45 seconds. The contact angle of a drop of water placed on the surface of the plasma-treated membrane was less than about 40°. The contact angle of a drop of water placed on the permeate side of the same membrane was greater than about 110°.
A permeate reservoir was formed by gluing a sample of the plasma-treated membrane to a glass tube having an inside diameter of about 1 inch (2.54 cm) using an epoxy-based glue (LOCTITE® E-30CL HYSOL® from Henkel Loctite Corp, Rocky Hill, Conn.). The feed-side of the membrane was oriented so that it was on the outside of the permeate reservoir, while the permeate-side of the membrane was oriented so that it was on the inside of the reservoir. The effective membrane area of the membrane on the permeate reservoir was about 4.9 cm^2. The permeate reservoir was placed into a glass feed reservoir. The feed reservoir was equipped with a magnetic stir bar and the reservoir was placed on a stir plate and the stir rate was set to 100 rpm during the test. The apparatus was placed into a chamber maintained at 37° C. for the duration of the test. Further details of the test apparatus and protocols are presented in co-pending U.S. Patent Application Ser. No. 60/557,897, entitled “Method and Device for Evaluation of Pharmaceutical Compositions,” filed Mar. 30, 2004, incorporated herein by reference.
To form the feed solution, a 1.429 mg (0.5 mgA) sample of CC-1 was weighed into a feed reservoir. (As used herein, “mgA” is milligrams of active drug, reported as the free base, non-salt form, non-hydrate drug molecule.) To this was added 5 mL of the MFD solution previously described, consisting of PBS solution containing 7.3 mM sodium taurocholic acid and 1.4 mM of 1-palmitoyl-2-oleyl-sn-glycero-3-phosphocholine (0.5% NaTC/POPC). […] The feed solution was mixed using a vortex mixer for 1 minute. Before the membrane contacted the feed solution, 5 mL of 60 wt % decanol in decane was placed into the permeate reservoir. Time zero in the test was when the membrane was placed in contact with the feed solution. A […] aliquot of the permeate solution was collected at the times indicated. Samples were then diluted in […] IPA and analyzed using HPLC.
The maximum flux of drug across the membrane (in units of μgA/cm^2-min) was determined by performing a least-squares fit to the data in Table 4 from 0 to 60 minutes to obtain the slope (CC-1: 0.26 μgA/mL-min; Control 1A: 0.13 μgA/mL-min; Control 1B: 0.07 μgA/mL-min), multiplying the slope by the permeate volume (5 mL), and dividing by the membrane area (4.9 cm^2).

[3] = Dissolution in phosphate buffered saline at pH 6.5 (ziprasidone); assay type: physicochemical; conditions: PBS pH 6.5, at equilibrium; drug crystallizes as the free base form
Excerpt: as §1
An appropriate MFD solution is the same PBS solution wherein there is also present 7.3 mM sodium taurocholic acid and 1.4 mM of 1-palmitoyl-2-oleyl-sn-glycero-3-phosphocholine.

O=C1Cc2cc(CCN3CCN(c4nsc5ccccc45)CC3)c(Cl)cc2N1 [Ziprasidone Free Base, ziprasidone]
Dissolved Ziprasidone Concentration ([1]; time 4 min): 1 μgA/mL | Dissolved Ziprasidone Concentration ([1]; time 10 min): 1 μgA/mL | Dissolved Ziprasidone Concentration ([1]; time 20 min): 1 μgA/mL | Dissolved Ziprasidone Concentration ([1]; time 40 min): 2 μgA/mL | Dissolved Ziprasidone Concentration ([1]; time 90 min): 1 μgA/mL | Dissolved Ziprasidone Concentration ([1]; time 1200 min): 2 μgA/mL | AUC ([1]; up to time 4 min): 3 min-μgA/mL | AUC ([1]; up to time 10 min): 11 min-μgA/mL | AUC ([1]; up to time 20 min): 23 min-μgA/mL | AUC ([1]; up to time 40 min): 51 min-μgA/mL | AUC ([1]; up to time 90 min): 120 min-μgA/mL | AUC ([1]; up to time 1200 min): 2000 min-μgA/mL | AUC90 ([1]; area under the concentration-versus-time curve during the initial ninety minutes, MFD solution): 120 min·µgA/mL | MDC90 ([1]; maximum dissolved concentration during the initial ninety minutes, MFD solution): 2 µgA/mL | solubility in water (Solubility in water): less than 0.2 μgA/mL | Ziprasidone Concentration in Permeate ([2]; 0 min): 0.0 μgA/mL | Maximum Flux of Ziprasidone [2]: 0.07 μgA/cm^2-min | Ziprasidone Concentration in Permeate ([2]; 20 min): 0.0 μgA/mL | Ziprasidone Concentration in Permeate ([2]; 40 min): 3.3 μgA/mL | Ziprasidone Concentration in Permeate ([2]; 60 min): 3.4 μgA/mL | Ziprasidone Concentration in Permeate ([2]; 90 min): 5.4 μgA/mL | Ziprasidone Concentration in Permeate ([2]; 120 min): 6.8 μgA/mL | Ziprasidone Concentration in Permeate ([2]; 180 min): 9.2 μgA/mL | Ziprasidone Concentration in Permeate ([2]; 245 min): 11.5 μgA/mL | Ziprasidone Concentration in Permeate ([2]; 360 min): 14.7 μgA/mL | equilibrium solubility [3]: about 0.2 μgA/mL
